Assay results from patent US12522594B2, “2-heteroaryl-3-oxo-2,3-dihydropyridazine-4-carboxamides for the treatment of cancer” (Deutsches Krebsforschungszentrum, priority 2017, dated 2026).

Columns and labels:
AHR [1] = biological target: T1, AHR (Homo sapiens, UniProt P35869); experiment: In vitro assay 1: antagonism in human cell line (transactivation assay, U87 cells prestimulated with kynurenic acid, DRE firefly luciferase reporter); type: cell-based; parameters: host or cells: U87 glioblastoma cells, stably transfected with DRE firefly luciferase and renilla reporter constructs; details: 150 uM kynurenic acid, 20 hours, read-out: Assay 1: AHR-luc Hum Antagonism IC50
T1 sequence (P35869 11-848): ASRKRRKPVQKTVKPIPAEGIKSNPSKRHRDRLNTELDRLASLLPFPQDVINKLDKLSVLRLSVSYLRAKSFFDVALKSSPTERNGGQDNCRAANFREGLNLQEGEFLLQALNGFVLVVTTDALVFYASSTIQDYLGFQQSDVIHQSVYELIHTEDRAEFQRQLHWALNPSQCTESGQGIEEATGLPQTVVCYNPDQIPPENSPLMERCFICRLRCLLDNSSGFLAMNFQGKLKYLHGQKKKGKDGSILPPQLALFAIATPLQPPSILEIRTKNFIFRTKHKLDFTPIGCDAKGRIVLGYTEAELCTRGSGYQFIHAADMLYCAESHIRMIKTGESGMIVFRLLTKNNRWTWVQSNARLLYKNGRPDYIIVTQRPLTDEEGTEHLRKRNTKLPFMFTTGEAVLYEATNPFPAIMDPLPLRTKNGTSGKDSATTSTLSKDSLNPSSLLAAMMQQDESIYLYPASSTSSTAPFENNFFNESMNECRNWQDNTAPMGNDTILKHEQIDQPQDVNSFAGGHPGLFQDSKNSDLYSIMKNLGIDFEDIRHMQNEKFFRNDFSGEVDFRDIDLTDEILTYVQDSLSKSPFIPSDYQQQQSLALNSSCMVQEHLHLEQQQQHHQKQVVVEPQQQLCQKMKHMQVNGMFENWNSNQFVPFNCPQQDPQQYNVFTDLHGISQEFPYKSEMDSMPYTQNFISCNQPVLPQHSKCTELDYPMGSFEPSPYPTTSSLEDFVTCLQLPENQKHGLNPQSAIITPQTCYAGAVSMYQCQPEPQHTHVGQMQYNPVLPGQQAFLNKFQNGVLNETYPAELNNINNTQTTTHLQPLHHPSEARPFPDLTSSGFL
How it was run: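 U87 glioblastoma cells with endogenous AHR, stably carrying a DRE-driven firefly luciferase reporter and a constitutive renilla reporter. Cells prestimulated with the AHR agonist kynurenic acid before compound addition; data normalized to positive and negative controls.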

AHR [2] = biological target: T1, AHR; experiment: In vitro assay 2: agonism in human cell line (transactivation assay, U87 cells, DRE firefly luciferase reporter); type: cell-based; parameters: host or cells: U87 glioblastoma cells, stably transfected with DRE firefly luciferase and renilla reporter constructs; details: no kynurenic acid, 20 hours, read-out: Assay 2: AHR-luc Hum Agonism IC50
How it was run: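 U87 glioblastoma cells with endogenous AHR, stably carrying DRE-driven firefly luciferase and constitutive renilla reporters. 300 uM kynurenic acid served as positive activation control; data normalized to positive and negative controls.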

Row | IC50 (AHR [1]) | IC50 (AHR [2]) | SMILES
1 | 42.9 nM | > 20000 nM | Cn1cc(-n2nc(-c3ccc(Cl)cc3)cc(C(=O)N[C@@H]3CCC[C@]3(C)O)c2=O)cn1 (single isomer, unassigned) [Example 336, 6-(4-Chlorophenyl)-N-[(cis)-2-hydroxy-2-methylcyclopentyl]-2-(1-methyl-1H-pyrazol-4-yl)-3-oxo-2,3-dihydropyridazine-4-carboxamide]
2 | 87.5 nM | > 20000 nM | COCC(O)CNC(=O)c1cc(-c2ccc(Cl)cc2)nn(-c2cnn(C)c2)c1=O (single isomer, unassigned; (+)) [Example 26, (+)-6-(4-Chlorophenyl)-N-(2-hydroxy-3-methoxypropyl)-2-(1-methyl-1H-pyrazol-4-yl)-3-oxo-2,3-dihydropyridazine-4-carboxamide]
3 | 48.1 nM | > 20000 nM | O=C(NC(CO)C1CC1)c1cc(-c2ccc(Cl)cc2)nn(-c2cccnc2)c1=O (single isomer, unassigned; (+)) [Example 91, (+)-6-(4-Chlorophenyl)-N-(1-cyclopropyl-2-hydroxyethyl)-3-oxo-2-(pyridin-3-yl)-2,3-dihydropyridazine-4-carboxamide]
4 | 0.502 nM | > 20000 nM | CC(C)(O)C(NC(=O)c1cc(-c2ccc(C(F)(F)F)cc2)nn(-c2cccnc2)c1=O)C(F)(F)F (single isomer, unassigned; (+)) [Example 197, (+)-3-Oxo-2-(pyridin-3-yl)-N-(1,1,1-trifluoro-3-hydroxy-3-methylbutan-2-yl)-6-[4-(trifluoromethyl)phenyl]-2,3-dihydropyridazine-4-carboxamide]
5 | 13.9 nM | > 20000 nM | O=C(NCC(O)C(F)F)c1cc(-c2ccc(C(F)(F)F)cc2)nn(-c2cccnc2)c1=O (single isomer, unassigned; (+)) [Example 247, (+)-N-(3,3-Difluoro-2-hydroxypropyl)-3-oxo-2-(pyridin-3-yl)-6-[4-(trifluoromethyl)phenyl]-2,3-dihydropyridazine-4-carboxamide]
6 | 25.6 nM | > 20000 nM | Cn1cc(-n2nc(-c3ccc(OC(F)(F)F)cc3)cc(C(=O)N[C@@H]3COC[C@@H]3O)c2=O)cn1 (single isomer, unassigned; enantiomer 1) [Example 56, N-[(cis)-4-Hydroxytetrahydrofuran-3-yl]-2-(1-methyl-1H-pyrazol-4-yl)-3-oxo-6-[4-(trifluoromethoxy)phenyl]-2,3-dihydropyridazine-4-carboxamide, Enantiomer 1]
7 | 81.6 nM | > 20000 nM | Cn1cc(-n2nc(-c3ccc(OC(F)(F)F)cc3)cc(C(=O)N[C@@H]3COC[C@H]3O)c2=O)cn1 (single isomer, unassigned; enantiomer 1) [Example 64, N-[(trans)-4-Hydroxytetrahydrofuran-3-yl]-2-(1-methyl-1H-pyrazol-4-yl)-3-oxo-6-[4-(trifluoromethoxy)phenyl]-2,3-dihydropyridazine-4-carboxamide, Enantiomer 1]
8 | 26.5 nM | > 20000 nM | CC(C)(O)C(NC(=O)c1cc(-c2ccc(Cl)cc2)nn(-c2cccnc2)c1=O)C(F)(F)F (single isomer, unassigned; enantiomer 1) [Example 122, 6-(4-Chlorophenyl)-3-oxo-2-(pyridin-3-yl)-N-(1,1,1-trifluoro-3-hydroxy-3-methylbutan-2-yl)-2,3-dihydropyridazine-4-carboxamide, Enantiomer 1]
9 | 60.4 nM | > 20000 nM | CC(C)(O)C(NC(=O)c1cc(-c2ccc(OC(F)(F)F)cc2)nn(-c2cccnc2)c1=O)C(F)(F)F (single isomer, unassigned; enantiomer 1) [Example 136, 3-Oxo-2-(pyridin-3-yl)-N-[1,1,1-trifluoro-3-hydroxy-3-methylbutan-2-yl]-6-[4-(trifluoromethoxy)phenyl]-2,3-dihydropyridazine-4-carboxamide, Enantiomer 1]
10 | 148 nM | > 20000 nM | O=C(N[C@H]1CCCC(F)(F)[C@@H]1O)c1cc(-c2ccc(OC(F)(F)F)cc2)nn(-c2cccnc2)c1=O (single isomer, unassigned; enantiomer 1) [Example 141, N-[(trans)-3,3-Difluoro-2-hydroxycyclohexyl]-3-oxo-2-(pyridin-3-yl)-6-[4-(trifluoromethoxy)phenyl]-2,3-dihydropyridazine-4-carboxamide, Enantiomer 1]
11 | 31.4 nM | > 20000 nM | O=C(N[C@H]1CCCC(F)(F)[C@@H]1O)c1cc(-c2ccc(Cl)cc2)nn(-c2cccnc2)c1=O (single isomer, unassigned; enantiomer 1) [Example 144, 6-(4-Chlorophenyl)-N-[(trans)-3,3-difluoro-2-hydroxycyclohexyl]-3-oxo-2-(pyridin-3-yl)-2,3-dihydropyridazine-4-carboxamide, Enantiomer 1]
12 | 90.5 nM | > 20000 nM | O=C(N[C@H]1COC[C@@H]1O)c1cc(-c2ccc(Cl)cc2)nn(-c2cncc(F)c2)c1=O (single isomer, unassigned; enantiomer 1) [Example 155, 6-(4-Chlorophenyl)-2-(5-fluoropyridin-3-yl)-N-[(trans)-4-hydroxytetrahydrofuran-3-yl]-3-oxo-2,3-dihydropyridazine-4-carboxamide, Enantiomer 1]
13 | 103 nM | > 20000 nM | O=C(N[C@H]1COC[C@@H]1O)c1cc(-c2ccc(OC(F)(F)F)cc2)nn(-c2cccnc2)c1=O (single isomer, unassigned; enantiomer 1) [Example 161, N-[(trans)-4-Hydroxytetrahydrofuran-3-yl]-3-oxo-2-(pyridin-3-yl)-6-[4-(trifluoromethoxy)phenyl]-2,3-dihydropyridazine-4-carboxamide, Enantiomer 1]
14 | 31.7 nM | > 20000 nM | O=C(N[C@H]1COC[C@@H]1O)c1cc(-c2ccc(Cl)cc2)nn(-c2cccnc2)c1=O (single isomer, unassigned; enantiomer 1) [Example 169, 6-(4-Chlorophenyl)-N-[(trans)-4-hydroxytetrahydrofuran-3-yl]-3-oxo-2-(pyridin-3-yl)-2,3-dihydropyridazine-4-carboxamide, Enantiomer 1]
15 | 7.48 nM | > 20000 nM | Cn1cc(-n2nc(-c3ccc(OC(F)(F)F)cc3)cc(C(=O)N[C@@H]3COC[C@@H]3O)c2=O)cn1 (single isomer, unassigned; enantiomer 2) [Example 57, N-[(cis)-4-Hydroxytetrahydrofuran-3-yl]-2-(1-methyl-1H-pyrazol-4-yl)-3-oxo-6-[4-(trifluoromethoxy)phenyl]-2,3-dihydropyridazine-4-carboxamide, Enantiomer 2]
16 | 25.5 nM | > 20000 nM | Cn1cc(-n2nc(-c3ccc(OC(F)(F)F)cc3)cc(C(=O)N[C@@H]3COC[C@H]3O)c2=O)cn1 (single isomer, unassigned; enantiomer 2) [Example 65, N-[(trans)-4-Hydroxytetrahydrofuran-3-yl]-2-(1-methyl-1H-pyrazol-4-yl)-3-oxo-6-[4-(trifluoromethoxy)phenyl]-2,3-dihydropyridazine-4-carboxamide, Enantiomer 2]
17 | 5.7 nM | > 20000 nM | CC(C)(O)C(NC(=O)c1cc(-c2ccc(Cl)cc2)nn(-c2cccnc2)c1=O)C(F)(F)F (single isomer, unassigned; enantiomer 2) [Example 123, 6-(4-Chlorophenyl)-3-oxo-2-(pyridin-3-yl)-N-(1,1,1-trifluoro-3-hydroxy-3-methylbutan-2-yl)-2,3-dihydropyridazine-4-carboxamide, Enantiomer 2]
18 | 4.23 nM | > 20000 nM | CC(C)(O)C(NC(=O)c1cc(-c2ccc(OC(F)(F)F)cc2)nn(-c2cccnc2)c1=O)C(F)(F)F (single isomer, unassigned; enantiomer 2) [Example 137, 3-Oxo-2-(pyridin-3-yl)-N-[1,1,1-trifluoro-3-hydroxy-3-methylbutan-2-yl]-6-[4-(trifluoromethoxy)phenyl]-2,3-dihydropyridazine-4-carboxamide, Enantiomer 2]
